Legend:
[1] = tested on: diaphyseal bone marrow derived stromal cells; assay: cell count of bone marrow derived stromal cells (preosteoblasts) challenged with ligand; assay type: cell-based, mouse; conditions: cells grown for 10 days in osteogenic medium; 48 hours incubation with ligand; FIG. 1f
Method: (§1) Cell cultures and mRNA analysis—Osteoclastogenic cultures of monocytes derived from femora and tibiae of WT C57BL/6J mice were set as previously reported (Zou, W., et al., 2002. FASEB J. 16: 274-282). After separation and prior to RNA extraction or cell counts the cells were cultured for 5 days in medium containing M-CSF and RANKL (R&D Systems Inc. Minneapolis, Minn.). Primary bone marrow stromal cell cultures from femoral diaphyseal bone marrow and the MC3T3 E1 cells were cultured as reported previously (Frenkel, B., et al., 1997. Endocrinology 138: 2109-2116; Bab, I., et al., 1992. EMBO J. 11: 1867-1873). The cells were grown in osteogenic medium containing ascorbic acid, β-glycerophophate and dexamethasone (Frenkel, B., et al., 1997. Endocrinology 138: 2109-2116).
(§2) In the cell count experiments, ligands were dissolved in dimethylsulfoxide and further diluted to their final concentration using tissue culture medium. For osteoclast counts the cultures were fixed in ethanol and TRAP-stained. […] The cells were then serum starved for 2 hours followed by 48 hours incubation in (α-MEM supplemented with 4% BSA and ligand. Cells were separated using chondroitinase and trypsin (Krebsbach, P. H., et al., 1998. Transplantation 66, 1272-1278) and counted with a hemocytometer in triplicate wells per condition.

OVX mice = assay: ovariectomy (OVX)-induced femoral bone loss in sexually mature mice; assay type: in vivo, mouse; conditions: C3H OVX mice, 10 mg/Kg/day subcutaneously for 4 weeks from time of operation; FIGS. 4a-g
Method: Ovariectomy (OVX) mice—C3H mice (Harlan, Israel) were subjected to an ovariectomy procedure. HU-308 was synthesized as described before [Hanus, L., et al. HU-308: a specific agonist for CB(2), a peripheral cannabinoid receptor. Proc. Natl. Acad. Sci. U.S.A. 96: 14228-142-33 (1999)] and was daily injected once subcutaneously as an ethanol/emulphor/saline (1:1:18) solution.
All reported animals received calcein flurochrome (Sigma), 15 mg/Kg intraperitoneally four days and one day prior to sacrifice. […]
Micro-computed tomography (μCT)—Whole femora were examined by μCT 40 (Scanco Medical, Bassersdorf, Switzerland). […] Trabecular bone parameters were measured in a metaphyseal segment, extending proximally from the proximal tip of the primary spongiosa to the proximal border of the distal femoral quartile. Cortical bone parameters were determined in a diaphyseal segment extending 1.12 mm distally from the midpoint between the femoral ends.
Histomorphometry and immunohistochemistry—After μCT image acquisition, the specimens were embedded undecalcified in Technovit 9100 (Heracus Kulzer, Wehrheim, Germany). […] Parameters were determined according to a standardized nomenclature [Parfitt, A. M., et al. Bone histomorphometry: standardization of nomenclature, symbols, and units. […]

[2] = tested on: tissue non-specific alkaline phosphatase (TNSALP); assay: TNSALP activity in the preosteoblastic stromal cell cultures; assay type: cell-based, mouse; conditions: preosteoblastic stromal cell culture, early differentiation stage; data not shown
Method: as §1, §2

[3] = tested on: bone marrow derived osteoclastic cell system; assay: count of TRAP-positive multinucleated osteoclasts in primary osteoclastogenic monocyte culture; assay type: cell-based, mouse; conditions: osteoclastogenic monocyte culture with M-CSF and RANKL; FIG. 1g
Method: as §1, §2

Row | SMILES | number of diaphyseal bone marrow derived stromal cells [1] | ovariectomy (OVX)-induced femoral bone loss (OVX mice) | activity of the tissue non-specific alkaline phosphatase (TNSALP) [2] | number of TRAP positive multinucleated cells [3]
1 | CCCCC/C=C\C/C=C\C/C=C\C/C=C\CCCCOC(CO)CO [Noladin ether, 2-arachidonyl glyceryl ether] | no significant effect | – | – | –
2 | CCCCCCC(C)(C)c1cc(OC)c([C@@H]2C=C(CO)[C@@H]3C[C@H]2C3(C)C)c(OC)c1 [HU-308] | potent increase | attenuating | unaffected | marked dose dependent decrease
